Results as given in the supplement of paper PMC10307832.

Key:
Experiment in all cases: relative viability (nuclei count vs DMSO), 5 days (fraction); higher = more cells survive
Wnt-C59 + Luminespib = compound: CC1=NC=CC(=C1)C2=CC=C(C=C2)CC(=O)NC3=CC=C(C=C3)C4=CN=CC=C4 [Wnt-C59] + CCNC(=O)c1noc(-c2cc(C(C)C)c(O)cc2O)c1-c1ccc(CN2CCOCC2)cc1 [Luminespib] (partner 0.01 µM)
Method in brief: (§1)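 Lung cancer cell lines were pin-tool dosed in 1536-well plates on the day after seeding, with either a lone drug or a fixed anchor-drug dose plus five library-drug doses (not always all listed) in √10 steps. Nuclei were counted on 4× images after 5 days. Relative viability is the ratio of treated-well to vehicle-well nuclei counts, with each value a median of duplicate plates.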

Lapatinib + Luminespib = compound: CS(=O)(=O)CCNCc1ccc(-c2ccc3ncnc(Nc4ccc(OCc5cccc(F)c5)c(Cl)c4)c3c2)o1 [Lapatinib] + CCNC(=O)c1noc(-c2cc(C(C)C)c(O)cc2O)c1-c1ccc(CN2CCOCC2)cc1 [Luminespib] (partner 0.01 µM)
Method in brief: as §1

Lapatinib + Phenformin = compound: CS(=O)(=O)CCNCc1ccc(-c2ccc3ncnc(Nc4ccc(OCc5cccc(F)c5)c(Cl)c4)c3c2)o1 [Lapatinib] + N=C(N)NC(=N)NCCc1ccccc1 [Phenformin] (partner 250 µM)
Method in brief: as §1

Lapatinib + Vorinostat = compound: CS(=O)(=O)CCNCc1ccc(-c2ccc3ncnc(Nc4ccc(OCc5cccc(F)c5)c(Cl)c4)c3c2)o1 [Lapatinib] + O=C(CCCCCCC(=O)Nc1ccccc1)NO [Vorinostat] (partner 1 µM)
Method in brief: as §1

Row | Cell Line | relative viability (Wnt-C59 + Luminespib; first compound 0.001 µM) | relative viability (Wnt-C59 + Luminespib; first compound 0.01 µM) | relative viability (Wnt-C59 + Luminespib; first compound 0.03162 µM) | relative viability (Wnt-C59 + Luminespib; first compound 0.1 µM) | relative viability (Lapatinib + Luminespib; first compound 0.02 µM) | relative viability (Lapatinib + Luminespib; first compound 0.06325 µM) | relative viability (Lapatinib + Luminespib; first compound 0.6325 µM) | relative viability (Lapatinib + Luminespib; first compound 2 µM) | relative viability (Lapatinib + Phenformin; first compound 0.02 µM) | relative viability (Lapatinib + Phenformin; first compound 0.06325 µM) | relative viability (Lapatinib + Phenformin; first compound 0.6325 µM) | relative viability (Lapatinib + Phenformin; first compound 2 µM) | relative viability (Lapatinib + Vorinostat; first compound 0.06325 µM) | relative viability (Lapatinib + Vorinostat; first compound 0.2 µM) | relative viability (Lapatinib + Vorinostat; first compound 0.6325 µM) | relative viability (Lapatinib + Vorinostat; first compound 2 µM) | relative viability (Lapatinib + Luminespib; first compound 0.2 µM) | relative viability (Lapatinib + Phenformin; first compound 0.2 µM) | relative viability (Lapatinib + Vorinostat; first compound 0.02 µM)
1 | NCI-H1623 | 0.594 | 0.413 | 0.544 | 0.481 | 0.429 | 0.437 | 0.456 | 0.408 | 0.546 | 0.494 | 0.659 | 0.261 | – | – | – | – | – | – | –
2 | HOP-62 | 0.945 | 0.913 | 0.969 | 0.927 | 0.839 | 0.949 | 0.869 | 1.01 | 0.499 | 0.641 | 0.631 | 0.695 | 0.631 | 0.639 | 0.678 | 0.655 | 0.932 | 0.635 | –
3 | NCI-H1755 | 0.549 | 0.534 | 0.407 | 0.644 | 0.421 | 0.423 | 0.579 | 0.378 | 0.409 | 0.595 | 0.59 | 0.59 | 0.689 | 0.801 | 0.76 | 0.676 | 0.349 | 0.642 | 0.731
4 | NCI-H1651 | 0.864 | 0.862 | 0.97 | 0.835 | 0.712 | 0.672 | 0.695 | 0.712 | 0.35 | 0.25 | 0.308 | 0.374 | 0.517 | 0.477 | 0.543 | 0.521 | 0.935 | 0.34 | 0.615
